Results taken from ChEMBL document CHEMBL3044752, “Isobutyl amides--potent compounds for controlling Diatraea saccharalis” (2009).

System: Diatraea saccharalis
Assay: Insecticidal activity against fourth-instar Diatraea saccharalis assessed as larval mortality measured per insect after 24 hr exposure
Type: functional

| SMILES | LD50 [µg] | LD90 [µg] |
| --- | --- | --- |
| CCCCC/C=C/C=C/C(=O)NCC(C)C [PELLITORIN] | 91.19 | 184.56 |
| CC(C)CNC(=O)/C=C/CCc1ccc2c(c1)OCO2 [4,5-DIHYDROPIPERLONGUMININE] | 92.83 | 176.5 |
